The source of these data is publication PMC3227622, “GnRH receptor activation competes at a low level with growth signaling in stably transfected human breast cell lines” (BMC Cancer, 2011).

Entries after “also recorded” stand apart in the source; their conditions may differ. Read-outs that look alike come from different tables or passages of the source.

On the set-up of experiment [1]: method as in PMID 17512856, PMID 19213681. The settings on record: by inhibiting secretion of luteinizing hormone and follicle stimulating hormone; ref [1],[2]; cited from earlier work.
Another experiment concerns SVCT-2 cells. Description: SRB cell growth assay, SVCT-2 (rat GnRH receptor transfected). The settings on record: for IC50: Homo sapiens; for IC50 / effect on cell growth of co-treatment / effect on cell growth: SRB; for effect on cell growth: single treatment. It counts as cell-based, human. The protocol: (§1) Cells were cultured in Dulbecco's modified Eagle's medium (DMEM) with 10% fetal bovine serum. Medium for SVCT cells was supplemented with recombinant human insulin and hydrocortisone as specified by the suppliers (ECACC, UK). HEK293[SCL60] and WPE-1-NB26-8 cells were cultured as described elsewhere. Cells were transfected with a plasmid construct, pcDNA3.1(+) (neo) (Invitrogen, UK) containing a rat GnRH receptor cDNA insert, using Fugene 6 (Roche, UK) in Optimem-I (GIBCO, Invitrogen, UK). Cell clones growing in 6 cm dishes were picked using trypsinization in cloning cylinders (Sigma, UK) and sequentially expanded in multiwell plates and flasks prior to characterization. Sub-clones were generated by re-transfecting an individual clone with a 2.334 kb SV40 promoter-hygromycin phosphotransferase cDNA fragment excised from pcDNA3.1(-) (hygro) plasmid (Invitrogen, UK) using PvuII (Promega, UK) and purified following agarose gel electrophoresis.
(§2) Cells were seeded into 12 well plates and growth was monitored using the sulforhodamine B (SRB) staining assay described previously. Two milliliters culture medium per well was sufficient to sustain cell growth over all time courses investigated. Cells were treated with a dose range of Triptorelin or vehicle (20% propylene glycol, Sigma, UK). Similar experiments employing IGF-IR, EGFR/ErbB2 and PI3K inhibitors were performed. Assay measurements were performed in triplicate and were repeated on separate occasions. At each time point, cells were fixed by adding 1 ml 25% trichloroacetic acid to each well, stored at 4°C for 1 h before gently washing and drying plates. Fixed cells were stained with 0.4% SRB in 1% acetic acid, washed, dried and dissolved in 1 ml 0.1 M Tris pH 10. Absorbance measurements at 540 nm correlated with the number of cells per well.
(§3) Immuno-fluorescence data were analyzed by one-way ANOVA using Minitab version 16 (Minitab Inc., USA). Prism software (GraphPad, USA) was used to prepare graphs and to calculate EC50 and IC50 values. Western blots were quantified using ImageQuant software (GE Healthcare). Quantitative data were analyzed using on-line tools for T-test, http://easycalculation.com/statistics/standard-deviation.php and http://www.quantitativeskills.com/sisa/.

A further experiment relates to MCF-7hygro14 cells. Description: SRB cell growth assay, MCF-7hygro14 (MCF-7-30-7hygro14). Type of experiment: cell-based, human. To be noted: for IC50: 96 h, without co-treatment, read-out: IC50 growth inhibition; for IC50 / effect on cell growth of co-treatment / effect on cell growth: 4 days. The protocol: as §1, §2, §3
Experiment [2] deals with p-ERK1/2 in MCF-7hygro14 cells. Description: p-ERK1/2 western blot, MCF-7hygro14. It counts as cell-based, human. The settings on record: for ERK1/2 re-phosphorylation after inhibitor wash-off: 1 h exposure to IGF-IR inhibitor II, then medium containing serum. The protocol: (§4) Cells were grown in six-well plastic culture plates until 50-70% confluent. Some samples were washed twice with phosphate buffered saline prior to incubation in serum-free medium overnight. Cells were treated with 100 nM Triptorelin or vehicle for specific time periods prior to lysis and harvesting. Samples were processed for western blotting as described previously using NP40 lysis buffer at 4°C [8, 9]. For quantitative data, time points were measured in triplicate. Blots were imaged by a Typhoon phosphor-imager (GE Healthcare, UK) using enhanced chemi-fluorescence detection and analyzed using ImageQuant software (GE Healthcare, UK).
as §3
In general terms: Immunoblotting shows a protein as a band on a membrane.

For a further experiment, the system named is HEK293[SCL60] cells. The experiment is described as follows: SRB cell growth assay, HEK293[SCL60]. Type of experiment: cell-based, human. The settings on record: SRB (Triptorelin: after 4 days). From the text:
Most reagents were purchased from Sigma UK, including D-Trp^6GnRH-I (D-Trp^6-LHRH, Triptorelin). Antibodies for ERK-1/2 and phosphorylated-ERK1/2 were purchased from Cell Signaling Technology, UK and for β-actin, from Sigma, UK. Secondary antibodies conjugated to alkaline phosphatase were from Sigma, UK. Insulin like growth factor receptor-I (IGF-IR) inhibitor II, EGFR/ErbB2 inhibitor and phosphatidylinositol-4,5-bisphosphate 3-kinase γ (PI3Kγ) inhibitor were purchased from Calbiochem, UK. SVCT cells were purchased from ECACC, UK. MCF-7, MDA-MB-231, ZR-75-1, and T47D cells were from American Type Culture Collection (LGC, UK). The GnRH receptor stably transfected HEK293[SCL60] and prostate WPE-1-NB26-8 cell lines described elsewhere together with HEK293 cells were used as controls for comparison.
Cells were cultured in Dulbecco's modified Eagle's medium (DMEM) with 10% fetal bovine serum. Medium for SVCT cells was supplemented with recombinant human insulin and hydrocortisone as specified by the suppliers (ECACC, UK). HEK293[SCL60] and WPE-1-NB26-8 cells were cultured as described elsewhere. […]
Cells were seeded into 12 well plates and growth was monitored using the sulforhodamine B (SRB) staining assay described previously. […] Absorbance measurements at 540 nm correlated with the number of cells per well.

Experiment [3] concerns p-ERK1/2 in MDA-MB-231-34 cells. Description: p-ERK1/2 western blot, MDA-MB-231-34. It counts as cell-based, human. The settings on record: IGF-IR inhibitor II. The protocol: as §4, §3
Experiment [4] deals with p-ERK1/2 in HEK293[SCL60] cells. Description: p-ERK1/2 western blot, HEK293[SCL60]. To be noted: IGF-IR inhibitor washed off, without Triptorelin. It counts as cell-based, human. The protocol:
as §4, §3

In another experiment the test system is MDA-MB-231-34 cells. Description: SRB cell growth assay, MDA-MB-231-34. Type of experiment: cell-based, human. The settings on record: SRB (Triptorelin 100 nM). The protocol:
as §1
Cells were seeded into 12 well plates and growth was monitored using the sulforhodamine B (SRB) staining assay described previously. Two milliliters culture medium per well was sufficient to sustain cell growth over all time courses investigated. Cells were treated with a dose range of Triptorelin or vehicle (20% propylene glycol, Sigma, UK). […] Absorbance measurements at 540 nm correlated with the number of cells per well.

[5] abbreviates: 96 h, without co-treatment, 4 days, read-out: IC50 growth inhibition.
Where [6] appears, read: co-treatment with 100 nM Triptorelin, 4 days.
Setting [7] is: co-treatment with 100 nM Triptorelin, SRB.
Where [8] appears, read: single treatment, SRB (Triptorelin 100 nM).
Setting [9] is: 15-20 μM IGF-IR inhibitor II, in the presence of serum.
[10] abbreviates: listed as IGF-I receptor inhibitor.

Turning to goserelin, the “plasma levels of estrogen” value in experiment [1] is “lowers plasma levels of estrogen”.
One may read the IC50 as the concentration at which inhibition is half-maximal. For the compound `COc1cc2ncnc(Nc3ccc(OCc4ccccc4)cc3)c2cc1OC` [EGFR/ErbB2 inhibitor, 4-(4-Benzyloxyanilino)-6,7-dimethoxyquinazoline], the IC50 was about 2 µM in the experiment on SVCT-2 cells (setting [5]) and about 5 µM in the experiment with MCF-7hygro14 cells (Homo sapiens, SRB). Besides, the “growth inhibition relative to vehicle treated cells” value in the experiment with SVCT-2 cells (after 4 days, SRB staining, 540 nm, DMEM with 10% fetal bovine serum, triplicate) is on record as 50%. Besides, the “effect on cell growth of co-treatment” value is recorded as “did not significantly affect growth; also recorded: had no effect” in the experiment on SVCT-2 cells (setting [6]) and “no significant growth-inhibition; also recorded: did not significantly affect growth” in the experiment with MCF-7hygro14 cells (setting [7]). Moreover, the entries for the “effect on cell growth” value in the experiment with SVCT-2 cells (4 days) and with MCF-7hygro14 cells (setting [8]) were “reduced SVCT-2 cell growth” and “inhibited”, respectively. The compound also gave a growth inhibition with MCF-7hygro14 cells (after 4 days, SRB) of 50%.
The term inhibition denotes the drop in the measured response relative to a control, in per cent. On to `COc1ccc(Cl)cc1NC(=O)Nc1cc(C)nc2ccccc12` [IGF-IR inhibitor II, N-(2-Methoxy-5-chlorophenyl)-N'-(2-methylquinolin-4-yl)-urea], for which the IC50 with SVCT-2 cells (setting [5]) was about 11 µM; with SVCT-2 cells (co-treatment with 100 nM Triptorelin, read-out: apparent IC50 growth inhibition) it was about 9 µM; in the experiment on MCF-7hygro14 cells (Homo sapiens, SRB) it was about 17 µM. The “effect on cell growth of co-treatment” value in the experiment on SVCT-2 cells (setting [6]) is “small additive effect; also recorded: increased growth inhibition marginally”; in the experiment on SVCT-2 cells (co-treatment with 100 nM Triptorelin, 4 days, listed as IGF-IR inhibitor), “small additive growth-inhibitory effect”; in the experiment with MCF-7hygro14 cells (setting [7]), “no significant effect”. Further, the “effect on cell growth” value is “complete growth inhibition accompanied by cell death; also recorded: effectively inhibited” with SVCT-2 cells (4 days); “Growth and survival were inhibited; also recorded: growth-inhibition and cell death” in the experiment with MCF-7hygro14 cells (setting [8]); “inhibited” in the experiment on HEK293[SCL60] cells; “inhibiting their growth also” in the experiment with MDA-MB-231-34 cells. Besides, the inhibition at 15 µM in the experiment on MCF-7hygro14 cells (Homo sapiens, 15 μM, exposure up to 2 hours, PBS washout, growth over 4 days, read-out: growth inhibition after transient exposure and washout) is under 10%. Moreover, the “growth inhibition after transient exposure and washout” value in the experiment on MCF-7hygro14 cells (exposure 6 hours or more, PBS washout, growth over 4 days) is listed as “more than 20%”. Further, the “effect on levels of p-ERK1/2” value is “permanent decrease in levels of p-ERK1/2” in experiment [2] (setting [9]); “rapid and sustained de-phosphorylation of ERK1/2; also recorded: rapid decrease in the levels of p-ERK1/2” in experiment [2] (15-20 μM IGF-IR inhibitor II, in the presence of serum, listed as IGF-IR inhibitor); “did not elicit this effect” in experiment [3]; “not in MDA-MB-231-34 cells; also recorded: did not affect levels of p-ERK1/2” in experiment [3] (listed as IGF-IR inhibitor). In addition, in experiment [2] (setting [9]), the “time to decrease in p-ERK1/2” value was at most 30 min. In addition, the “ERK1/2 re-phosphorylation after inhibitor wash-off” value in experiment [2] was “rapid hyper-phosphorylation of ERK1/2 followed by a slow decline”; in experiment [2] (setting [10]), “Rapid re-phosphorylation of ERK1/2”; in experiment [2] (listed as IGF-IR inhibitor), “rapid hyper-phosphorylation of ERK1/2, followed by a slow decline to basal levels”; in experiment [4], “hyper-phosphorylation of ERK1/2 did not occur”; in experiment [4] (setting [10]), “Re-phosphorylation of ERK1/2 was less marked”; in experiment [4] (listed as IGFR-IR inhibitor II) it was “rapid hyper-phosphorylation of ERK1/2 did not occur”.
Consider `O=C1NC(=O)C(=Cc2ccc3nccnc3c2)S1` [PI3Kγ inhibitor, 5-Quinoxalin-6-ylmethylene-thiazolidine-2,4-dione], for which the “effect on cell growth” value with MCF-7hygro14 cells (PI3K inhibitor 5 nM to 7 μM, maximum dose 7 μM) is recorded as “not affected”; in the experiment on MCF-7hygro14 cells (PI3K inhibitor 5 nM to 7 μM, maximum dose 7 μM, listed as PI3K inhibitor), “did not affect growth; also recorded: lack of effect”. Besides, the “effect on cell growth of co-treatment” value in the experiment on MCF-7hygro14 cells (PI3K inhibitor up to 7 μM with 100 nM Triptorelin) is given as “no significant growth-inhibition”; in the experiment on MCF-7hygro14 cells (PI3K inhibitor up to 7 μM with 100 nM Triptorelin, listed as PI3K inhibitor) it was “did not significantly alter this result”.
